{"source": "patent US20230023009A1", "about": "“HETEROCYCLIC COMPOUNDS AND METHODS OF USE THEREOF” (SPARCBIO LLC, priority 2020, published 2023)", "key": {"[1]": {"target": "KRAS G12C protein (Homo sapiens, UniProt P01116, G12C)", "sequence (P01116 1-188 isoform P01116-2 G12C)": "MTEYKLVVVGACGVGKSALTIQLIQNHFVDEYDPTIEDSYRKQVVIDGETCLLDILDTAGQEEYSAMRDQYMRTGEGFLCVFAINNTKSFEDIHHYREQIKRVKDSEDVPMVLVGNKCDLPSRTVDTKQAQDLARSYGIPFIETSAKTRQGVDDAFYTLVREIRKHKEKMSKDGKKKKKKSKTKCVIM", "assay": "Nucleotide exchange assay (Method III, KRAS G12C/Raf-RBD TR-FRET)", "format": "biochemical", "conditions": "SOS1-mediated exchange of GDP for GTP, 18 hr compound incubation", "method_in_brief": "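His-tagged GDP-bound KRAS G12C (25 nM in 2× mix) was preincubated with an 11-point, 3-fold compound series for 18 hr at 23° C, then SOS1/GTP was added for 1 hr. FLAG-Raf-RBD with Tb-anti-FLAG/D2-anti-His followed for 2 hr at room temperature. TR-FRET was read, and IC50 was obtained by non-linear regression.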"}, "[2]": {"target": "T1, hERG potassium channel (Homo sapiens, UniProt Q12809)", "T1 construct": "host or cells: CHO", "T1 sequence (Q12809 whole entry)": "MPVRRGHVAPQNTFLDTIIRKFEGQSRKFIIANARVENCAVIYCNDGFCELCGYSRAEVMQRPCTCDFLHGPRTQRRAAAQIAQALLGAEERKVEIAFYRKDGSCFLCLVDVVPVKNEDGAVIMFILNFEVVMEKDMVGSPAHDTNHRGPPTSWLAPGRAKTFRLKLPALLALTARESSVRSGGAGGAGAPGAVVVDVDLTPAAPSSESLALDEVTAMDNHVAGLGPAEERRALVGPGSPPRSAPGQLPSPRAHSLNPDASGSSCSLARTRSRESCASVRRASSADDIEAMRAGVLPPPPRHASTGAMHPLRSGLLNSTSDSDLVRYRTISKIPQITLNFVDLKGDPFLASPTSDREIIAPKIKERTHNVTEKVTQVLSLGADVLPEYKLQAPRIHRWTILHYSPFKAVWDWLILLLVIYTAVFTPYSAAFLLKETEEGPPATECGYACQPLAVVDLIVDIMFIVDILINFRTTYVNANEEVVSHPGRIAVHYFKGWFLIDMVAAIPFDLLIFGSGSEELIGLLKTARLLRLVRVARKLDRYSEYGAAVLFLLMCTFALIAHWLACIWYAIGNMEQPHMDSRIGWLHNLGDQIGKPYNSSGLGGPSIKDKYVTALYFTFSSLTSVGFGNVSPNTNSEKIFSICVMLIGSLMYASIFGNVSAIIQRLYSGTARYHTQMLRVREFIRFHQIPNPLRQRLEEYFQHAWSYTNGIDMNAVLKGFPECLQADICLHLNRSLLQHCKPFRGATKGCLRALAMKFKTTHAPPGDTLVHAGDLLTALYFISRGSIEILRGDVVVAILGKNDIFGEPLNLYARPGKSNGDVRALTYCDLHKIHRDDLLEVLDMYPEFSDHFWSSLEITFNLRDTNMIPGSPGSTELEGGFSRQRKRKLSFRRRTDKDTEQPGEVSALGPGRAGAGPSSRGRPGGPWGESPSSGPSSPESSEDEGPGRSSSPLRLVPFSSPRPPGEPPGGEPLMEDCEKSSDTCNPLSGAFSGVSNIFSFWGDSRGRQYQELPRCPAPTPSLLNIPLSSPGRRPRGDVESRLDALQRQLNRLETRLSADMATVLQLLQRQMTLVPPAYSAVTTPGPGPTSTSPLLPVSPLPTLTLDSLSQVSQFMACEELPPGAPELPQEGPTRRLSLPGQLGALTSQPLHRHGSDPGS", "assay": "hERG inhibition assay (manual whole-cell patch-clamp, CHO cells)", "format": "cell-based", "description": "Compounds were tested for the potential to inhibit the hERG potassium channel. It is known that inhibition of the hERG channel may cause QT prolongation and increase the risk of cardiac arrhythmias. Therefore, to avoid cardiotoxicity, a compound with relatively low or no inhibition of the channel is desirable. Manual whole-cell patch-clamp recordings were made in Chinese hamster ovary (CHO) cells stably expressing hERG channels (B'Sys, Switzerland). Standard intracellular and bath solutions for hERG current detection were used. Cells were exposed to test compounds at 6 concentrations prepared by 1:3 serial dilution of compounds from a top starting concentration of 30 μM. Currents were elicited by stepping the voltage from a holding potential of −80 mV to −50 mV (20 ms) and then stepping to +40 mV (4 s). A subsequent step to −50 mV (4 s) was used to elicit a tail current which was used for data analysis. Current recordings were made in triplicate using three different cells. Data normalized to the activity in vehicle (0.1 or 0.3% DMSO) were fit with 4-parameter non-linear regression, and IC50 values were determined from the dose-response curves, using GraphPad Prism software."}}, "data": [{"smiles": "C=C(F)C(=O)N1CCN(c2nc(OC[C@@H]3CCCN3C)nc3c2CO[C@@H](c2cccc4cccc(Cl)c24)C3)C[C@@H]1CC#N", "note": "(single isomer, unassigned) [43 (Isomer B)]", "values": [{"measurement": "IC50", "setting": "[1]", "result": "≤ 0.3", "unit": "µM"}, {"measurement": "IC50", "setting": "[2]", "result": 3.61, "unit": "µM"}]}]}
